In publication PMC8209656 (The Journal of endocrinology, 2010):

Columns and labels:
Assay in all cases: ethoxyresorufin-O-deethylase fluorescence, recombinant membranes
Format in all cases: biochemical
Conditions in all cases: 30 °C; human CPR co-expressed
CYP1C2 = biological target: T1, CYP1C2 (Danio rerio, UniProt A0AC58HLV5)
T1 sequence (A0AC58HLV5 1-514): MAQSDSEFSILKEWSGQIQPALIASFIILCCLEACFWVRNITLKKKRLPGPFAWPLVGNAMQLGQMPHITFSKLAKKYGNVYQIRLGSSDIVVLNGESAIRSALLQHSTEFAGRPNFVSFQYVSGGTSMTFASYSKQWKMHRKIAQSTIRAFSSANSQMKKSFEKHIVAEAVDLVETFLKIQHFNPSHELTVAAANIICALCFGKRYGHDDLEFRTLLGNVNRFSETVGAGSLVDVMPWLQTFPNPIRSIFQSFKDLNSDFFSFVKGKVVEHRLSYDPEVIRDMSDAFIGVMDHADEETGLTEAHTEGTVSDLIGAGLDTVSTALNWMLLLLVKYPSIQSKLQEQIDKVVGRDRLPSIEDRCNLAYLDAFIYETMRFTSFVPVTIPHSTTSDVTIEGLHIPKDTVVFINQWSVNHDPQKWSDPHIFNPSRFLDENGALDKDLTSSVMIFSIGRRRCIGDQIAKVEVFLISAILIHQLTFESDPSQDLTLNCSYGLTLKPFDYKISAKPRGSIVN

CYP1B1 = biological target: T2, CYP1B1 (Danio rerio, UniProt Q1JQ70)
T2 sequence (Q1JQ70 1-526): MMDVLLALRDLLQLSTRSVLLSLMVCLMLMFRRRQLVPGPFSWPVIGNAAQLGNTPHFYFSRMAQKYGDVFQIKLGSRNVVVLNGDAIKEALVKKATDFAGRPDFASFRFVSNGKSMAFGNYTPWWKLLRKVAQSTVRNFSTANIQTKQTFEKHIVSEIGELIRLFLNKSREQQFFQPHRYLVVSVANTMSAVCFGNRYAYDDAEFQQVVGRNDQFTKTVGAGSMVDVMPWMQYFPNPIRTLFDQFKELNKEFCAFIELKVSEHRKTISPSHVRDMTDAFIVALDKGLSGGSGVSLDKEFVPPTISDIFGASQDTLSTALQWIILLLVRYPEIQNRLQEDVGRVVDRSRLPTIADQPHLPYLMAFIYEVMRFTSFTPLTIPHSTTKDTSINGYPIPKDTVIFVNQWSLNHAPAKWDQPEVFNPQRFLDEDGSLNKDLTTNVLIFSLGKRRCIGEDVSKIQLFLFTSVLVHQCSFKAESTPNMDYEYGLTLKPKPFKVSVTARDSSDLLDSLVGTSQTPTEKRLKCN

CYP1C1 = biological target: T3, CYP1C1 (Danio rerio, UniProt A0A8M1N631)
T3 sequence (A0A8M1N631 13-523): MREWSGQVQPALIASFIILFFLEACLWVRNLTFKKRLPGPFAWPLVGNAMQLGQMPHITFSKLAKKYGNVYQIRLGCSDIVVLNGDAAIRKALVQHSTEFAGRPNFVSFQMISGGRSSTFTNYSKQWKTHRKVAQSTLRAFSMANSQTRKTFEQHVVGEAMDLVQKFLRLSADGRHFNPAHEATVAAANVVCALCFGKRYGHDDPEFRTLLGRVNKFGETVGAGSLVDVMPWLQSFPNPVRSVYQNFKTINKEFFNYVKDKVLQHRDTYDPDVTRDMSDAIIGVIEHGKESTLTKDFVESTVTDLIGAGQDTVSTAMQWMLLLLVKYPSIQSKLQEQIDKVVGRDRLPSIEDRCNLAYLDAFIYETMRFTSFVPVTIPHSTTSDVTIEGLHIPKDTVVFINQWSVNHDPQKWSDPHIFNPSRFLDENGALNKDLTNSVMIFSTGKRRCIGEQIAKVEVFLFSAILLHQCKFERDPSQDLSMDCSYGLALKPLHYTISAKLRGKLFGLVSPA

**Q.** Which results are given for CCOc1ccc2nc3ccc(=O)cc-3oc2c1 [7-ethoxyresorufin]?
**A.** ethoxyresorufin-O-deethylase fluorescence, recombinant membranes (CYP1C2): All CYP1s showed catalytic activity for 7-ER and BFC except for CYP1D1 and CYP3A65; ethoxyresorufin-O-deethylase fluorescence, recombinant membranes (CYP1B1): All CYP1s showed catalytic activity for 7-ER and BFC except for CYP1D1 and CYP3A65; ethoxyresorufin-O-deethylase fluorescence, recombinant membranes (CYP1C1): All CYP1s showed catalytic activity for 7-ER and BFC except for CYP1D1 and CYP3A65
